Columns and labels:
Format in all cases: in vivo, human
[1] = tested on: cognitively impaired patients with EDS associated with OSA; assay: SHARP clinical study: British Columbia Cognitive Complaints Inventory (BC-CCI); details: 2 weeks treatment, 150 mg per day
Description: (§1) SHARP (Solriamfetol's Effect on Cognitive Health in Apnea Participants During a Randomized Placebo-controlled Study) was a randomized, double-blind, placebo-controlled, crossover, multicenter, trial in which 59 patients with excessive daytime sleepiness (EDS) and obstructive sleep apnea (OSA), who were experiencing cognitive impairment, were all treated with solriamfetol for 2 weeks, and with placebo for 2 weeks, with the treatment periods separated by 1 week of down-titration and washout. Patients were randomized in a 1:1 ratio either to treatment with solriamfetol followed by placebo (sequence 1), or to treatment with placebo followed by solriamfetol (sequence 2). Solriamfetol was administered orally once daily, starting at 75 mg per day for the first three days and 150 mg per day for the remainder of the 2-week treatment period. The primary outcome measure was the Digit Symbol Substitution Test subtest of the Repeatable Battery for the Assessment of Neuropsychological Status (DSST RBANS). The Digit Symbol Substitution subtest is also referred to as “Coding.” The prespecified primary endpoint was the change from baseline in cognitive function as measured by the DSST RBANS after 2 weeks of treatment (average of the 2-, 4-, 6-, and 8-hour post-dose DSST RBANS scores). […] The secondary endpoints were analyzed in a pre-specified testing sequence. […]

[2] = tested on: cognitively impaired patients with EDS associated with OSA; assay: SHARP clinical study: Digit Symbol Substitution Test subtest of RBANS (DSST RBANS)
Description: as §1

[3] = tested on: cognitively impaired patients with EDS associated with OSA; assay: SHARP clinical study: Epworth Sleepiness Scale (ESS); details: 2 weeks treatment, 150 mg per day
Description: as §1

[4] = tested on: cognitively impaired patients with EDS associated with OSA; assay: SHARP clinical study: adverse events; details: solriamfetol treatment, 75 then 150 mg per day oral, 2 weeks
Description: as §1

Structure (SMILES): NC(=O)OC[C@H](N)Cc1ccccc1 [solriamfetol, (R)-2-amino-3-phenylpropyl carbamate]
- effect size, BC-CCI overall score vs. placebo [1]: 0.43
- improvement in cognitive function, BC-CCI overall score compared to placebo ([1]; p=0.002): Statistically significant improvement
- effect size, DSST RBANS vs. placebo ([2]; 2 weeks treatment, 150 mg per day): 0.36
- change from baseline on the DSST RBANS ([2]; after 2 weeks oral once daily (75 mg 3 days, then 150 mg), average of 2-, 4-, 6-, 8-hour post-dose scores, placebo 4.75, p=0.009): 6.49
- effect size, ESS vs. placebo [3]: 0.50
- improvement on the ESS relative to placebo ([3]; p=0.004): approximately twice that observed with placebo
- adverse event incidence: anxiety [4]: 3.4%
- adverse event incidence: nausea [4]: 6.9%

— patent US20250032442A1, “METHODS AND COMPOSITIONS FOR TREATING COGNITIVE IMPAIRMENT” (AXSOME MALTA LTD., priority 2021, published 2025)
